{"source": "patent US20250011300A1", "about": "“PIPERAZINYLSULFONYLARYL COMPOUNDS FOR TREATMENT OF BACTERIAL INFECTIONS” (Hoffmann-La Roche Inc., priority 2021, published 2025)", "key": {"[1]": {"biological_target": "Escherichia coli LpxH (UDP-2,3-diacylglucosamine hydrolase) (Escherichia coli (strain K12), UniProt P43341)", "sequence (P43341 whole entry)": "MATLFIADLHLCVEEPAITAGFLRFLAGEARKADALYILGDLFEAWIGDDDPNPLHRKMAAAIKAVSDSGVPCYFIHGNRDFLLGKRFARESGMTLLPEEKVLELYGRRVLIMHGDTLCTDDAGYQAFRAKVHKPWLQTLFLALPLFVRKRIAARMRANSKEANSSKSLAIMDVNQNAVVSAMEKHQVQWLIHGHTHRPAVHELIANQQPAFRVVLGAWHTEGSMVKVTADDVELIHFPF", "assay": "50% Inhibitory Concentration (IC50) to LpxH, UMP/CMP-Glo Glycosyltransferase Assay kit", "type": "biochemical", "outline": "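LpxH hydrolysis of UDP-2,3-diacylglucosamine to lipid X and UMP; UMP produced is converted to ATP and quantified by luciferase luminescence (UMP/CMP-Glo). Inhibition taken from reduced light output.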"}, "E. coli (ATCC 25922)": {"tested_on": "E. coli (ATCC 25922)", "assay": "Minimal Inhibitory Concentration (MIC) assay, E. coli", "type": "cell-based", "conditions": "Escherichia coli, ATCC25922; E. coli ATCC 25922, CAMHB, 20 hours at 35° C.; read-out: MIC E. coli ATCC 25922", "outline": "(§1)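 Broth microdilution in cation-adjusted Mueller Hinton broth, inoculum 5×10^5 CFU/mL, compounds 2-fold serially diluted from 10 mM DMSO stocks. Plates incubated 20 hours at 35° C in ambient air; MIC (μg/mL) is the lowest concentration preventing visible growth.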"}, "[2]": {"tested_on": "K. pneumonia (ATCC 43816)", "assay": "Minimal Inhibitory Concentration (MIC) assay, K. pneumonia", "type": "cell-based", "conditions": "Klebsiella pneumoniae; K. pneumoniae ATCC43816, CAMHB, 20 hours at 35° C.; read-out: MIC K. pneumoniae ATCC43816", "outline": "as §1"}}}
{"smiles": "CO[C@@H]1OC(C2OC(=O)N(c3ccc(S(=O)(=O)N4CCN(c5cc(C(F)(F)F)cc(Cl)n5)CC4)cc3)C2C)[C@@H](O)[C@H]1O", "note": "(stereo partly drawn) [Example 22, 3-[4-[4-[6-Chloro-4-(trifluoromethyl)-2-pyridyl]piperazin-1-yl]sulfonylphenyl]-5-[(3S,4R,5R)-3,4-dihydroxy-5-methoxy-tetrahydrofuran-2-yl]-4-methyl-oxazolidin-2-one]", "values": [{"measurement": "IC50", "setting": "[1]", "value": "< 0.00314", "unit": "µM"}, {"measurement": "MIC", "setting": "E. coli (ATCC 25922)", "value": 1.99, "unit": "µg/mL"}, {"measurement": "MIC", "setting": "[2]", "value": 1.99, "unit": "µg/mL"}]}
{"smiles": "N[C@H]1CN(c2ccc(S(=O)(=O)N3CCN(c4cc(C(F)(F)F)cc(Cl)n4)CC3)cc2)C1=O", "note": "[Example 7, (3S)-3-amino-1-[4-[4-[6-chloro-4-(trifluoromethyl)-2-pyridyl]piperazin-1-yl]sulfonylphenyl]azetidin-2-one]", "values": [{"measurement": "IC50", "setting": "[1]", "value": 0.0633, "unit": "µM"}, {"measurement": "MIC", "setting": "E. coli (ATCC 25922)", "value": 3.78, "unit": "µg/mL"}, {"measurement": "MIC", "setting": "[2]", "value": 5.66, "unit": "µg/mL"}]}
{"smiles": "O=C1OC(CN2CC3(CNC3)C2)CN1c1ccc(S(=O)(=O)N2CCN(c3cc(C(F)(F)F)cc(Cl)n3)CC2)cc1", "note": "(stereo not drawn) [Example 32, 3-[4-[4-[6-Chloro-4-(trifluoromethyl)-2-pyridyl]piperazin-1-yl]sulfonylphenyl]-5-(2,6-diazaspiro[3.3]heptan-2-ylmethyl)oxazolidin-2-one]", "values": [{"measurement": "IC50", "setting": "[1]", "value": 0.025, "unit": "µM"}, {"measurement": "MIC", "setting": "E. coli (ATCC 25922)", "value": 8.94, "unit": "µg/mL"}, {"measurement": "MIC", "setting": "[2]", "value": 8.94, "unit": "µg/mL"}]}
{"smiles": "NCCN1CCC[C@H]2OC(=O)N(c3ccc(S(=O)(=O)N4CCN(c5cc(C(F)(F)F)cc(Cl)n5)CC4)cc3)[C@H]2C1", "note": "[Example 25, (3aS,8aR)-5-(2-aminoethyl)-3-[4-[4-[6-chloro-4-(trifluoromethyl)-2-pyridyl]piperazin-1-yl]sulfonylphenyl]-3a,4,6,7,8,8a-hexahydrooxazolo[4,5-c]azepin-2-one]", "values": [{"measurement": "IC50", "setting": "[1]", "value": 0.0249, "unit": "µM"}, {"measurement": "MIC", "setting": "E. coli (ATCC 25922)", "value": 2.6, "unit": "µg/mL"}, {"measurement": "MIC", "setting": "[2]", "value": 2.6, "unit": "µg/mL"}]}
{"smiles": "CN(C)CC1CN(c2ccc(S(=O)(=O)N3CCN(c4cc(C(F)(F)F)cc(Cl)n4)CC3)cc2)C(=O)O1", "note": "(stereo not drawn) [Example 28, 3-[4-[4-[6-Chloro-4-(trifluoromethyl)-2-pyridyl]piperazin-1-yl]sulfonylphenyl]-5-[(dimethylamino)methyl]oxazolidin-2-one]", "values": [{"measurement": "IC50", "setting": "[1]", "value": 0.0128, "unit": "µM"}, {"measurement": "MIC", "setting": "E. coli (ATCC 25922)", "value": 1.83, "unit": "µg/mL"}, {"measurement": "MIC", "setting": "[2]", "value": 1.83, "unit": "µg/mL"}]}
{"smiles": "CC1C(N)CC(=O)N1c1ccc(S(=O)(=O)N2CCN(c3cc(C(F)(F)F)cc(Cl)n3)CC2)cc1", "note": "(stereo not drawn) [Example 61, 4-Amino-1-[4-[4-[6-chloro-4-(trifluoromethyl)-2-pyridyl]piperazin-1-yl]sulfonylphenyl]-5-methyl-pyrrolidin-2-one]", "values": [{"measurement": "IC50", "setting": "[1]", "value": 0.0502, "unit": "µM"}, {"measurement": "MIC", "setting": "E. coli (ATCC 25922)", "value": 6.47, "unit": "µg/mL"}, {"measurement": "MIC", "setting": "[2]", "value": 6.47, "unit": "µg/mL"}]}
{"smiles": "NC1CC(=O)N(c2ccc(S(=O)(=O)N3CCN(c4cc(C(F)(F)C5CCOC5)cc(Cl)n4)CC3)cc2)C1", "note": "(stereo not drawn) [Example 96, 4-Amino-1-[4-[4-[6-chloro-4-[difluoro(tetrahydrofuran-3-yl)methyl]-2-pyridyl]piperazin-1-yl]sulfonylphenyl]pyrrolidin-2-one]", "values": [{"measurement": "IC50", "setting": "[1]", "value": 0.0036, "unit": "µM"}, {"measurement": "MIC", "setting": "E. coli (ATCC 25922)", "value": 3.48, "unit": "µg/mL"}, {"measurement": "MIC", "setting": "[2]", "value": 1.74, "unit": "µg/mL"}]}
{"smiles": "O=C1CC(NC2CNC2)CN1c1ccc(S(=O)(=O)N2CCN(c3cc(C(F)(F)F)cc(Cl)n3)CC2)cc1", "note": "(stereo not drawn) [Example 58, 4-(Azetidin-3-ylamino)-1-[4-[4-[6-chloro-4-(trifluoromethyl)-2-pyridyl]piperazin-1-yl]sulfonylphenyl]pyrrolidin-2-one]", "values": [{"measurement": "IC50", "setting": "[1]", "value": 0.0286, "unit": "µM"}, {"measurement": "MIC", "setting": "E. coli (ATCC 25922)", "value": 7.44, "unit": "µg/mL"}, {"measurement": "MIC", "setting": "[2]", "value": 14.9, "unit": "µg/mL"}]}
{"smiles": "O=C1OC(CO)CN1c1ccc(S(=O)(=O)N2CCN(c3cc(C(F)(F)[C@@H]4CNCCO4)cc(Cl)n3)CC2)cc1", "note": "(stereo partly drawn) [Example 110, 3-[4-[4-[6-Chloro-4-[difluoro-[(2S)-morpholin-2-yl]methyl]-2-pyridyl]piperazin-1-yl]sulfonylphenyl]-5-(hydroxymethyl)oxazolidin-2-one]", "values": [{"measurement": "IC50", "setting": "[1]", "value": 0.0034, "unit": "µM"}, {"measurement": "MIC", "setting": "E. coli (ATCC 25922)", "value": 0.99, "unit": "µg/mL"}, {"measurement": "MIC", "setting": "[2]", "value": 0.99, "unit": "µg/mL"}]}
{"smiles": "O=C1CC2(CNC2)CN1c1ccc(S(=O)(=O)N2CCN(c3cc(C(F)(F)F)cc(Cl)n3)CC2)cc1", "note": "[Example 12, 6-[4-[4-[6-Chloro-4-(trifluoromethyl)-2-pyridyl]piperazin-1-yl]sulfonylphenyl]-2,6-diazaspiro[3.4]octan-7-one]", "values": [{"measurement": "IC50", "setting": "[1]", "value": 0.0698, "unit": "µM"}, {"measurement": "MIC", "setting": "E. coli (ATCC 25922)", "value": 2.01, "unit": "µg/mL"}, {"measurement": "MIC", "setting": "[2]", "value": 4.03, "unit": "µg/mL"}]}
{"smiles": "NC1CC(=O)N(c2ccc(S(=O)(=O)N3CCN(c4cc(C(F)(F)c5ncccn5)cc(Cl)n4)CC3)cc2)C1", "note": "(stereo not drawn) [Example 94, 4-Amino-1-[4-[4-[6-chloro-4-[difluoro(pyrimidin-2-yl)methyl]-2-pyridyl]piperazin-1-yl]sulfonylphenyl]pyrrolidin-2-one]", "values": [{"measurement": "IC50", "setting": "[1]", "value": 0.186, "unit": "µM"}, {"measurement": "MIC", "setting": "E. coli (ATCC 25922)", "value": 3.53, "unit": "µg/mL"}, {"measurement": "MIC", "setting": "[2]", "value": 3.53, "unit": "µg/mL"}]}
{"smiles": "O=C1CC2(CCCCN2)CN1c1ccc(S(=O)(=O)N2CCN(c3cc(C(F)(F)F)cc(Cl)n3)CC2)cc1", "note": "(stereo not drawn) [Example 10, 2-[4-[4-[6-Chloro-4-(trifluoromethyl)-2-pyridyl]piperazin-1-yl]sulfonylphenyl]-2,6-diazaspiro[4.5]decan-3-one]", "values": [{"measurement": "IC50", "setting": "[1]", "value": 0.0197, "unit": "µM"}, {"measurement": "MIC", "setting": "E. coli (ATCC 25922)", "value": 1.05, "unit": "µg/mL"}, {"measurement": "MIC", "setting": "[2]", "value": 4.2, "unit": "µg/mL"}]}
{"smiles": "C=Cc1nc(N2CCN(S(=O)(=O)c3ccc(N4CC(N)CC4=O)cc3)CC2)cc(C(F)(F)c2ccccc2)n1", "note": "(stereo not drawn) [Example 84, 4-Amino-1-[4-[4-[6-[difluoro(phenyl)methyl]-2-vinyl-pyrimidin-4-yl]piperazin-1-yl]sulfonylphenyl]pyrrolidin-2-one]", "values": [{"measurement": "IC50", "setting": "[1]", "value": 0.0144, "unit": "µM"}, {"measurement": "MIC", "setting": "E. coli (ATCC 25922)", "value": 4.18, "unit": "µg/mL"}, {"measurement": "MIC", "setting": "[2]", "value": 16.7, "unit": "µg/mL"}]}
{"smiles": "NC1CN(CC2CC(=O)N(c3ccc(S(=O)(=O)N4CCN(c5cc(C(F)(F)F)cc(Cl)n5)CC4)cc3)C2)C1", "note": "(stereo not drawn) [Example 40, 4-[(3-Aminoazetidin-1-yl)methyl]-1-[4-[4-[6-chloro-4-(trifluoromethyl)-2-pyridyl]piperazin-1-yl]sulfonylphenyl]pyrrolidin-2-one]", "values": [{"measurement": "IC50", "setting": "[1]", "value": 0.0209, "unit": "µM"}, {"measurement": "MIC", "setting": "E. coli (ATCC 25922)", "value": 1.79, "unit": "µg/mL"}, {"measurement": "MIC", "setting": "[2]", "value": 1.79, "unit": "µg/mL"}]}
{"smiles": "CN1CCN(CC2CC(=O)N(c3ccc(S(=O)(=O)N4CCN(c5cc(C(F)(F)F)cc(Cl)n5)CC4)cc3)C2)CC1", "note": "(stereo not drawn) [Example 36, 1-[4-[4-[6-Chloro-4-(trifluoromethyl)-2-pyridyl]piperazin-1-yl]sulfonylphenyl]-4-[(4-methylpiperazin-1-yl)methyl]pyrrolidin-2-one]", "values": [{"measurement": "IC50", "setting": "[1]", "value": 0.0266, "unit": "µM"}, {"measurement": "MIC", "setting": "E. coli (ATCC 25922)", "value": 1.88, "unit": "µg/mL"}, {"measurement": "MIC", "setting": "[2]", "value": 3.76, "unit": "µg/mL"}]}
{"smiles": "NCCNC1CC(=O)N(c2ccc(S(=O)(=O)N3CCN(c4cc(C(F)(F)F)cc(Cl)n4)CC3)cc2)C1", "note": "(stereo not drawn) [Example 45, 4-(2-Aminoethylamino)-1-[4-[4-[6-chloro-4-(trifluoromethyl)-2-pyridyl]piperazin-1-yl]sulfonylphenyl]pyrrolidin-2-one]", "values": [{"measurement": "IC50", "setting": "[1]", "value": 0.0457, "unit": "µM"}, {"measurement": "MIC", "setting": "E. coli (ATCC 25922)", "value": 3.65, "unit": "µg/mL"}, {"measurement": "MIC", "setting": "[2]", "value": 7.29, "unit": "µg/mL"}]}
{"smiles": "CN(C)CC1CN(CC2CC(=O)N(c3ccc(S(=O)(=O)N4CCN(c5cc(C(F)(F)F)cc(Cl)n5)CC4)cc3)C2)C1", "note": "(stereo not drawn) [Example 37, 1-[4-[4-[6-Chloro-4-(trifluoromethyl)-2-pyridyl]piperazin-1-yl]sulfonylphenyl]-4-[[3-[(dimethylamino)methyl]azetidin-1-yl]methyl]pyrrolidin-2-one]", "values": [{"measurement": "IC50", "setting": "[1]", "value": 0.0488, "unit": "µM"}, {"measurement": "MIC", "setting": "E. coli (ATCC 25922)", "value": 2.64, "unit": "µg/mL"}, {"measurement": "MIC", "setting": "[2]", "value": 5.27, "unit": "µg/mL"}]}
{"smiles": "N[C@@H]1CC(=O)N(c2ccc(S(=O)(=O)N3CCN(c4cc(C(F)(F)[C@H]5CCCNC5)cc(Cl)n4)CC3)cc2)C1", "note": "[Example 108, (4R)-4-amino-1-[4-[4-[6-chloro-4-[difluoro-[(3S)-3-piperidyl]methyl]-2-pyridyl]piperazin-1-yl]sulfonylphenyl]pyrrolidin-2-one]", "values": [{"measurement": "IC50", "setting": "[1]", "value": 0.0351, "unit": "µM"}, {"measurement": "MIC", "setting": "E. coli (ATCC 25922)", "value": 4.98, "unit": "µg/mL"}, {"measurement": "MIC", "setting": "[2]", "value": 4.98, "unit": "µg/mL"}]}
